# Measured values from patent US6357163B1, “Use of nucleic acid analogues in diagnostics and analytical procedures” (priority 1991, dated 2002).
# Values joined by “and” are separate entries in the source; they are usually repeats but may differ in a detail not shown here. Equal entries are not always repeated.
# Tests used:
# 5′-AAA-AAA-AAA-AAA-AAA = test: Melting temperature (Tm) of hybrid with oligodeoxyribonucleotide; type: binding; details: oligo 14 (5′-AAA-AAA-AAA-AAA-AAA); 10 mM phosphate, 1 mM EDTA, 140 mM NaCl, pH 7.2
# Excerpt: (§1) 2. Upon formation of DNA duplexes (dsDNA) from single strand DNA, the extinction coefficient decreases (hypochromicity). Thus, the denaturing of DNA can be followed by measuring changes in the absorbance, for example, as a function of […], the temperature where 50% of a duplex has disappeared to give single strands.
# (§2) Duplexes were formed from the single-stranded oligodeoxyribonucleotides and the PNAs listed below. Typically 0.3 OD260 of the T-rich strand was hybridized with 1 equivalent of the other strand by heating to 90° C. for 5 min, cooling to room temperature and kept for 30 min and finally stored in a refrigerator at 5° C. for at least 30 min. The buffers used were all 10 mM in phosphate and 1 mM in EDTA. The low salt buffer contained no sodium chloride, whereas the medium salt buffer contained 140 mM NaCl and the high salt buffer 500 mM NaCl. The pH of all the buffers was 7.2. The melting temperature of the hybrids were determined on a Gilford Response apparatus. The following extinction coefficients were used A: 15.4 ml/μmol.cm; T: 8.8; G: 11.7 and C: 7.3 for both normal oligonucleotides and PNA. The melting curves were recorded in steps of 0.5 C/min. The Tm were determined from the maximum of the 1st derivative of the plot of A260 vs temperature.
# 14. 5′-AAA-AAA-AAA-AAA-AAA (See SEQ ID NO:20)
# (dA)10 = test: as above; type: binding; details: for Tm, Medium Salt / Tm, High Salt / Tm, Low Salt: oligo 2 (5′-AAA-AAA-AAA-A), 10 mM phosphate, 1 mM EDTA, pH 7.2; for Tm, Medium Salt: 140 mM NaCl; for Tm, High Salt: 500 mM NaCl; for Tm, Low Salt: no sodium chloride; for Tm: DNA (dA)10
# Excerpt: as §1, §2
# (dA)5(dG)(dA)4 = test: as above; type: binding; details: oligo 4 (5′-AAA-AAG-AAA-A), 10 mM phosphate, 1 mM EDTA, pH 7.2; for Tm, Medium Salt: 140 mM NaCl; for Tm, High Salt: 500 mM NaCl; for Tm, Low Salt: no sodium chloride
# Excerpt: as §1, §2
# 5′-AAG-AAG-AAA-A = test: as above; type: binding; details: oligo 5 (5′-AAG-AAG-AAA-A); 10 mM phosphate, 1 mM EDTA, 140 mM NaCl, pH 7.2
# Excerpt: as §1, §2
# 5. 5′-AAG-AAG-AAA-A (See SEQ ID NO:9)
# 5′-AAA-AGA-AGA-A = test: as above; type: binding; details: oligo 7 (5′-AAA-AGA-AGA-A); 10 mM phosphate, 1 mM EDTA, 140 mM NaCl, pH 7.2
# Excerpt: as §1, §2
# 7. 5′-AAA-AGA-AGA-A (See SEQ ID NO:13)
# 32P-end-labelled dA10 = test: Binding to dA10, gel retardation (PAGE); details: for binding to the corresponding dA10: summary statement, illustrated by gel retardation and Tm
# Description: (§3) 1. As shown in Example 56 below PNA-oligonucleotide complexes will migrate slower than the single stranded oligonucleotide upon electrophoresis in polyacrylamide gels. Consequently, such experiments were performed with Acr^1-(Taeg)10-Lys-NH2 and ^32P-end-labelled dA10.
# The sample was cooled in ice (15 min) and analyzed by gel electrophoresis in polyacrylamide (PAGE). To 10 μl of the sample was added 2 μl 50% glycerol, 5μl TBE (TBE=90 mM Tris-borate, 1 mM EDTA, pH 8.3), and the sample was analysed by PAGE (15% acrylamide, 0.5% bisacrylamide) in TBE buffer at 4° C. A 10 μl portion of the sample was lyophilized and redissolved in 10 μl 80% formamide, 1 TBE, heated to 90° C. (5 min), and analyzed by urea/PAGE (15% acrylamide, 0.5% bisacrylamide, 7 M urea) in TBE. [^32P]-containing DNA bands were visualized by autoradiography using intensifying screens and Agfa Curix RPI X-ray films exposed at −80° C. for 2 h.
# Oligonucleotides were synthesized on a Biosearch 7500 DNA synthesizer, labelled with γ[^32P]-ATP (Amersham, 5000 Ci/mmol) and polynucleotide kinase, and purified by PAGE using standard techniques (Maniatis et al. (1986): A laboratory manual, Cold Spring Harbor Laboratories).
# (§4) In FIG. 11a and in FIG. 11b, the 5′-^32P-labelled oligonucleotide 1 is 5′-GATCCA10G. This was incubated in the absence (lanes 1 and 4) or presence of Acr-T10-Lys-NH2 (in lanes 2 and 5, 25 pmol; lanes 3 and 6, 75 pmol) and also in the absence (lanes 1 to 3) or presence (lanes 4 to 6) of “oligo-2” which was 5′-GATCCT10G. 5′-^32P-labelled oligo 2 was incubated in the absence (lane 7) or presence of the same PNA (lane 8, 25 pmol; lane 9, 75 pmol) and analysed by PAGE as described above in detail.
# The results in FIG. 11a show retardation of the ssDNA as it is hybridised by PNA (lanes 1 to 3) and the ability of PNA to compete with a DNA oligonucleotide, for labelled complementary oligonucleotide (lanes 4 to 6). The intensity of the band attributable to dsDNA grows faster as the PNA concentration is raised and is replaced by a band representing the slower moving PNA-DNA hybride. […]
# 32P-end-labelled dT10 = test: Gel retardation (PAGE), control experiment; type: binding; details: same conditions
# Description: as §3, §4
# The results in FIG. 11a show retardation of the ssDNA as it is hybridised by PNA (lanes 1 to 3) and the ability of PNA to compete with a DNA oligonucleotide, for labelled complementary oligonucleotide (lanes 4 to 6). The intensity of the band attributable to dsDNA grows faster as the PNA concentration is raised and is replaced by a band representing the slower moving PNA-DNA hybride.
# [1] = tested on: A10 (5′-GATCCAAAAAAAAAAG); type: binding
# [2] = tested on: A9G (5′-TCGACAAAAAGAAAAG); test: Binding of 5′-32P-endlabeled oligonucleotide to PNA-Sepharose; details: DNA A9G; PNA on solid support (CNBr-Sepharose); 16 hr at 20° C. in TE
# [3] = tested on: A8G2 (5′-GAAGAAGAAACTGAC); test: as above; details: DNA A8G2; PNA on solid support (CNBr-Sepharose); 16 hr at 20° C. in TE
# [4] = tested on: mix (5′-GATCACGCGTATACGCGT); test: as above; details: DNA mix; PNA on solid support (CNBr-Sepharose); 16 hr at 20° C. in TE
# 5′-AAA-AAA-AA = test: Melting temperature (Tm) of hybrid with oligodeoxyribonucleotide; type: binding; details: oligo 1 (5′-AAA-AAA-AA), 10 mM phosphate, 1 mM EDTA, pH 7.2
# Excerpt: as §1, §2
# 1. 5′-AAA-AAA-AA (See SEQ ID NO:12)
# [5] = tested on: 32P-dsDNA (A10/T10) target, pT10 fragment; test: Stability of PNA-dsDNA complexes; type: binding; details: PNA bound to A10/T10 dsDNA target; heated 10 min with competing GATCCA10G, S1 nuclease
# Description: Complexes between PNA-Tn and ^32P-dsDNA (A10/T10) target were formed (60 min, 37° C.). The complexes were then incubated at the desired temperature in the presence of excess oligo-dA10 for 10 min, cooled to RT and probed with KMnO4.
# A mixture of 200 cps ^32P-pT10 fragment (as in Example 65), 0.5 μg calf thymus DNA and 300 ng of the desired PNA (either T10-LysNH2, T8-LysNH2 or T6-LysNH2) was incubated in 100 μl 200 mM NaCl, 50 mM Na-acetate, pH 4.5, 1 mM ZnSO4 for 60 min at 37° C. A 2 μg portion of oligonucleotide GATCCA10G was added to compete with the PNA for the labelled oligonucleotide and each sample was heated for 10 min at the temperature indicated, cooled in ice for 10 min and warmed to 20° C. 50 U of S1 nuclease was added and the quantity of radio-activity liberated as single nucleotides was measured.
# RNA-A (poly rA) = test: Melting of PNA-RNA hybrid; type: binding; details: hybrid with RNA-A (poly rA); cannot be measured
# Description: (§5) The hybrid formed between RNA-A (poly rA) and PNA-T10-Lys-NH2 melts at such high temperature that it cannot be measured (>90 C). […] Thereafter the sample is heated to 90° C. for 5 min, cooled to room temperature and kept at this temperature for 30 minutes and finally stored at 5° C. for 30 min.
# RNA-A = test: Drop in A260 on mixing PNA with RNA; type: binding
# Description: as §5
# RNA-C = test: Drop in A260 on mixing PNA with RNA; type: binding
# Description: as §5
# RNA-G = test: Drop in A260 on mixing PNA with RNA; type: binding
# Description: as §5
# RNA-U = test: Drop in A260 on mixing PNA with RNA; type: binding
# Description: as §5
# [6] = tested on: A10 target in plasmid pA10KS / pT10KS, transcription by RNA polymerase; test: Inhibition of transcription by PNA; type: biochemical
# Description: RNA transcripts were visualized by autoradiography. The plasmid used was: Lane 1 to 5; pA10KS (the A10 target is positioned on the transcribed strand). Lane 6 to 10: pT10KS (the A10 target is positioned on the non-transcribed strand). The plasmid was treated with the following restriction enzymes prior to the experiment: Lanes 1, 4, 6 and 9: PyuII; lanes 2, 5, 7 and 10: Xha I; lanes 3 and 8: BamHI. […] If the PNA is bound to the non-transcribed strand of the plasmid, transcription is not arrested.
# [7] = A260 before mixing 0.600, heated to 90° C. for 5 min, cooled
substance,measurement,setting,value
5′-TTT-TTT-TTT-TTT-TTT [Oligo 13],"Tm, Medium Salt",5′-AAA-AAA-AAA-AAA-AAA,39.0 °C
Ac-TTT-TTT-TTT-T-Lys-NH2 [f],"Tm, Medium Salt",(dA)10,74 °C
same,"Tm, Medium Salt",(dA)5(dG)(dA)4,62.0 °C
same,"Tm, Medium Salt",5′-AAG-AAG-AAA-A,46.5 °C
same,"Tm, Medium Salt",5′-AAA-AGA-AGA-A,43.5 °C
Acr-TTT-TTT-TTT-T-Lys-NH2 [e],"Tm, Medium Salt",(dA)10,86.0 °C
same,"Tm, High Salt",(dA)10,˜90 °C
same,"Tm, Low Salt",(dA)10,84.5 °C
same,migration of 32P-end-labelled dA10 in polyacrylamide gel,32P-end-labelled dA10; native and denaturing gel conditions,retarded migration
same,binding to the corresponding dA10,32P-end-labelled dA10,very efficient binding
same,migration of 32P-end-labelled dT10 in polyacrylamide gel,32P-end-labelled dT10,no retardation
TTC-TTC-TTT-T-Lys-NH2 [T8C2],% Binding of 32P-oligo to PNA-Sepharose,[1],15%
same,% Binding of 32P-oligo to PNA-Sepharose,[2],52%
same,% Binding of 32P-oligo to PNA-Sepharose,[3],42%
same,% Binding of 32P-oligo to PNA-Sepharose,[4],14%
TTT-TTC-TTT-T-Lys-NH2,"Tm, Medium Salt",(dA)5(dG)(dA)4,72.0 °C
same,"Tm, High Salt",(dA)5(dG)(dA)4,72.5 °C
same,"Tm, Low Salt",(dA)5(dG)(dA)4,74.5 °C
same,"Tm, Medium Salt",5′-AAG-AAG-AAA-A,57.5 °C
same,"Tm, Medium Salt",5′-AAA-AGA-AGA-A,58.0 °C
same,% Binding of 32P-oligo to PNA-Sepharose,[2],50%
same,% Binding of 32P-oligo to PNA-Sepharose,[3],45%
same,% Binding of 32P-oligo to PNA-Sepharose,[4],13%
TTT-TTT-TT-Lys-NH2 [b],"Tm, Medium Salt",5′-AAA-AAA-AA; 140 mM NaCl,51.5 °C
same,"Tm, High Salt",5′-AAA-AAA-AA; 500 mM NaCl,50.0 °C
same,"Tm, Low Salt",5′-AAA-AAA-AA; no sodium chloride,56.0 °C
same,Tm of PNA/DNA complex,[5],60 °C
TTT-TTT-TTT-T-Lys-NH2 [H-T10-LysNH2],Tm,(dA)10; Example 55,73 °C and 73 °C °C
same,Tm,(dA)10; Example 61,73 °C °C
same,"Tm, Medium Salt",(dA)10,72.5 °C
same,"Tm, High Salt",(dA)10,73.0 °C
same,"Tm, Low Salt",(dA)10,73.0 °C
same,"Tm, Medium Salt",(dA)5(dG)(dA)4,59.0 °C
same,"Tm, High Salt",(dA)5(dG)(dA)4,61.5 °C
same,"Tm, Low Salt",(dA)5(dG)(dA)4,60.0 °C
same,"Tm, Medium Salt",5′-AAG-AAG-AAA-A,47.0 °C
same,"Tm, Medium Salt",5′-AAA-AGA-AGA-A,46.0 °C
same,melting temperature of hybrid,RNA-A (poly rA),> 90 C
same,A260 After Mixing,RNA-A; A260 before mixing 0.600,0.389
same,A260 After Mixing and Heating,RNA-A; [7],0.360
same,A260 After Mixing,RNA-C; A260 before mixing 0.600,0.540
same,A260 After Mixing and Heating,RNA-C; [7],0.532
same,A260 After Mixing,RNA-G; A260 before mixing 0.600,0.514
same,A260 After Mixing and Heating,RNA-G; [7],0.517
same,A260 After Mixing,RNA-U; A260 before mixing 0.600,0.538
same,A260 After Mixing and Heating,RNA-U; [7],0.528
same,% Binding of 32P-oligo to PNA-Sepharose,[1],51%
same,% Binding of 32P-oligo to PNA-Sepharose,[2],11%
same,% Binding of 32P-oligo to PNA-Sepharose,[3],11%
same,% Binding of 32P-oligo to PNA-Sepharose,[4],11%
same,Tm of PNA/DNA complex,[5],> 70 °C
same,binding to the corresponding dA10,32P-end-labelled dA10,very efficient binding
same,transcription of RNA,[6]; PNA bound to the non-transcribed strand (pT10KS),not arrested
same,transcription of RNA,[6]; PNA bound to the transcribed strand (pA10KS),arrested at the PNA binding site
